The results in this text go back to patent publication US5622962A, “5α-reductase inhibitors” (priority 1995, dated 1997).

Like-named read-outs stand apart in the source and are kept apart here.

Usually inhibition stands for how much of the control response was suppressed.

For assay [1], the target named is T1, Type II 5α-Reductase from Human Prostate (Homo sapiens, UniProt P31213).
T1 construct: The same procedure as above was used for preparations using tissue from prostate surgery; from tissue; host or cells: human prostate tissue from surgery, homogenate, 100,000×g pellet
T1 sequence (P31213 1-254): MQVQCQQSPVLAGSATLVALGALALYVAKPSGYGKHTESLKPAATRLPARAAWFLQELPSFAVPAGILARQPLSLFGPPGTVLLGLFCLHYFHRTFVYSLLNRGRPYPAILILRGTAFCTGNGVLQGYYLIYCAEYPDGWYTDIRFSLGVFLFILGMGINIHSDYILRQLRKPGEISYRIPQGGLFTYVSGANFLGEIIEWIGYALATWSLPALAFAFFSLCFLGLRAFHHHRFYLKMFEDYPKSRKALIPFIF
Description: Human Type II 5α-reductase assay (conversion of [3H]-testosterone to 5α-reduced metabolites). It is filed as biochemical. As to conditions: for percent inhibition of Type II AR: 0.3 μM.

In assay [2] the target is T2, Type I 5α-Reductase from Human Scalp (Homo sapiens, UniProt P18405).
T2 construct: Scalp punch biopsies from graft recipient sites were obtained from human hair transplant procedures; from tissue; host or cells: human scalp punch biopsies (hair transplant graft recipient sites), homogenate, 100,000×g pellet
T2 sequence (P18405 1-259): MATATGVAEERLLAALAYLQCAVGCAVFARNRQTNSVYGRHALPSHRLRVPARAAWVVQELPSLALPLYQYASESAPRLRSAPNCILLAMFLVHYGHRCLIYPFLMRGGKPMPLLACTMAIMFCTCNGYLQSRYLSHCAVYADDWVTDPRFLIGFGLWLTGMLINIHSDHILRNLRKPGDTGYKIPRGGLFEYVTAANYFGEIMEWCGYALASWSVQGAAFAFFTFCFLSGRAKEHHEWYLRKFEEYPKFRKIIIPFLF
Description: Human Type I 5α-reductase assay (conversion of [3H]-testosterone to 5α-reduced metabolites). It is filed as biochemical.

Setting [3] is: pH 5.5, 0.3 μM, sodium acetate pH 5.5, 25°, 30 min, compared to control reaction mixtures, read-out: percent inhibition of Type II AR.
Setting [4] is: pH 7.5, 0.3 μM, 50 nM [3H]-testosterone, pH 7.5, 25°, 180 min, compared to control reaction mixtures, read-out: percent inhibition of Type I AR.
Setting [5] is: sodium acetate pH 5.5, 25°, 30 min, compared to control reaction mixtures.

Consider `CN1C(=O)CC[C@]2(C)c3ccc(Sc4nc5c(C(C)(C)C)ccc(C(C)(C)C)c5s4)cc3CC[C@@H]12` [Example 189, (+)-(4aR)-(10bR)-4-methyl-8-[4,7-di(t-butyl)-2-benzothiazolylthio]-10b-methyl-1,2,3,4,4a,5,6,10b-octahydrobenzo[f]-quinolin-3-one], for which the inhibition at 0.3 µM turned out to be 19% in assay [1] (setting [3]) and 84% in assay [2] (setting [4]).

With `Cc1ccc(C(F)(F)F)c2sc(Sc3ccc4c(c3)CC[C@H]3N(C)C(=O)CC[C@]43C)nc12` [Example 190, (+)-(4aR)-(10bR)-4-methyl-8-(4-methyl-7-trifluoromethyl-2-benzothiazolylthio)-10b-methyl-1,2,3,4,4a,5,6,10b-octahydrobenzo[f]quinolin-3-one], the results for the inhibition at 0.3 µM in assay [1] (setting [3]) and in assay [2] (setting [4]) were 26% and 76%, respectively.

Turning to `CN1C(=O)CC[C@]2(C)c3ccc(SCc4cc5ccccc5cn4)cc3CC[C@@H]12` [Example 191, (+)-(4aR)-(10bR)-8-(3-isoquinolinylmethylthio)-4,10b-dimethyl-1,2,3,4,4a,5,6,10b-octahydrobenzo[f]quinoline-3-one], in assay [1] (setting [5]), the “percent inhibition of Type II AR” value turned out to be 28%. Moreover, the inhibition at 0.3 µM turned out to be 19% in assay [1] (setting [3]) and 65% in assay [2] (setting [4]).

Take `CN1C(=O)CC[C@]2(C)c3ccc(SCc4nc5ccccc5s4)cc3CC[C@@H]12` [Example 192, (+)-(4aR)-(10bR)-8-(2-benzothiazolylmethylthio)-4,10b-dimethyl-1,2,3,4,4a,5,6,10b-octahydrobenzo[f]quinoline-3-one]: the inhibition at 0.3 µM turned out to be 33% in assay [1] (setting [3]) and 80% in assay [2] (setting [4]).

As for `CN1C(=O)CC[C@]2(C)c3ccc(SC(c4ccccc4)c4ccccc4)cc3CC[C@@H]12` [Example 195, (4aR)-(10bR)-8-diphenylmethylthio-4,10b-dimethyl-1,2,3,4,4a,5,6,10b-octahydrobenzo[f]-quinoline-3-one], the values for the inhibition at 0.3 µM in assay [1] (setting [3]) and in assay [2] (setting [4]) were 71% and 90%, respectively.

On to `CN1C(=O)CC[C@]2(C)c3ccc(-c4cncc5ccccc45)cc3CC[C@@H]12` [Example 200, (+)-(4aR)-(10bR)-4-methyl-8-(4-isoquinolinyl)-10b-methyl-1,2,3,4,4a,5,6,10b-octahydrobenzo [f]quinolin-3-one], for which, in assay [1] (setting [5]), the “percent inhibition of Type II AR” value is 64%. Moreover, the inhibition at 0.3 µM stood at 72% in assay [1] (setting [3]) and 59% in assay [2] (setting [4]).

For `CN1C(=O)CC[C@]2(C)c3ccc(-c4cnc5ccccc5c4)cc3CC[C@@H]12` [Example 201, (+)-(4aR)-(10bR)-4-methyl-8-(3-quinolinyl)-10b-methyl-1,2,3,4,4a,5,6,10b-octahydrobenzo[f]quinolin-3-one], in assay [1] (setting [5]), the “percent inhibition of Type II AR” value came out at 57%. Also, the inhibition at 0.3 µM in assay [1] (setting [3]) stood at 60%; in assay [2] (setting [4]), 69%.

Take `CN1C(=O)CC[C@]2(C)c3ccc(-c4ccc([N+](=O)[O-])cn4)cc3CC[C@@H]12` [Example 202, (+)-(4aR)-(10bR)-4-methyl-8-(5-nitro-2-pyridinyl)-10b-methyl-1,2,3,4,4a,5,6,10b-octahydrobenzo[f]quinolin-3-one]: the inhibition at 0.3 µM was 48% in assay [1] (setting [3]) and 41% in assay [2] (setting [4]).

As to `CN1C(=O)CC[C@]2(C)c3ccc(-c4cc(C(F)(F)F)nc5c(C(F)(F)F)cccc45)cc3CC[C@@H]12` [Example 203, (+)-(4aR)-(10bR)-4-methyl-8-[2,8-bis(trifluoromethyl)-4-quinolinyl]-10b-methyl-1,2,3,4,4a,5,6,10b-octahydrobenzo[f]-quinolin-3-one], the values for the inhibition at 0.3 µM in assay [1] (setting [3]) and in assay [2] (setting [4]) were 34% and 8%, respectively.

Consider `CN1C(=O)CC[C@]2(C)c3ccc(-c4ccc(S(C)(=O)=O)cc4)cc3CC[C@@H]12` [Example 204, (+)-(4aR)-(10bR)-4-methyl-8-(4-methylsulfonylphenyl)-10b-methyl-1,2,3,4,4a,5,6,10b-octahydrobenzo[f]quinolin-3-one], for which the inhibition at 0.3 µM in assay [1] (setting [3]) is 39%; in assay [2] (setting [4]), 34%.

Consider `CN1C(=O)CC[C@]2(C)c3ccc(-c4c(F)c(F)c(F)c(F)c4F)cc3CC[C@@H]12` [Example 205, (+)-(4aR)-(10bR)-4-methyl-8-(2,3,4,5,6-pentafluorophenyl)-10b-methyl-1,2,3,4,4a,5,6,10b-octahydrobenzo[f]quinolin-3-one], for which the inhibition at 0.3 µM in assay [1] (setting [3]) came out at 37%; in assay [2] (setting [4]), 100%.

With `CN1C(=O)CC[C@]2(C)c3ccc(-c4cc(F)c(F)c(F)c4)cc3CC[C@@H]12` [Example 206, (+)-(4aR)-(10bR)-4-methyl-8-(3,4,5-trifluorophenyl)-10b-methyl-1,2,3,4,4a,5,6,10b-octahydrobenzo[f]quinolin-3-one], the inhibition at 0.3 µM is 32% in assay [1] (setting [3]) and 97% in assay [2] (setting [4]). Further, the “percent inhibition of Type I AR” value in assay [2] (0.3 μM, 50 nM [3H]-testosterone, pH 7.5, 25°, 180 min, compared to control reaction mixtures) is 100%.

With `CN1C(=O)CC[C@]2(C)c3ccc(-c4ccc5c(c4)CCC5=O)cc3CC[C@@H]12` [Example 207, (+)-(4aR)-(10bR)-4-methyl-8-(1-oxo-5-indanyl)-10b-methyl-1,2,3,4,4a,5,6,10b-octahydrobenzo[f]quinolin-3-one], the inhibition at 0.3 µM in assay [1] (setting [3]) was found to be 16%; in assay [2] (setting [4]) it was 45%.

In the case of `CN1C(=O)CC[C@]2(C)c3ccc(-c4cccc(C(F)(F)F)c4F)cc3CC[C@@H]12` [Example 208, (+)-(4aR)-(10bR)-4-methyl-8-(2-fluoro-3-trifluoromethyl-phenyl)-10b-methyl-1,2,3,4,4a,5,6,10b-octahydrobenzo[f]-quinolin-3-one], the inhibition at 0.3 µM amounted to 10% in assay [1] (setting [3]) and 77% in assay [2] (setting [4]).

Take `CN1C(=O)CC[C@]2(C)c3ccc(-c4cccc(C(=O)NC5CCN(Cc6ccccc6)CC5)c4)cc3CC[C@@H]12` [Example 209, (+)-(4aR)-(10bR)-4-methyl-8-(3-[1-benzyl-4-piperidinylcarboxamido]phenyl)-10b-methyl-1,2,3,4,4a,5,6,10b-octahydrobenzo[f]quinolin-3-one]: the inhibition at 0.3 µM in assay [1] (setting [3]) was determined as 11%; in assay [2] (setting [4]), 24%.

As to `CN1C(=O)CC[C@]2(C)c3ccc(-c4ccc(C(F)(F)F)cc4F)cc3CC[C@@H]12` [Example 210, (+)-(4aR)-(10bR)-4-methyl-8-(2-fluoro-4-trifluoromethylphenyl)-10b-methyl-1,2,3,4,4a,5,6,10b-octahydrobenzo[f]-quinolin-3-one], the inhibition at 0.3 µM in assay [1] (pH 5.5, read-out: percent inhibition of Type II AR) was 38%; in assay [2] (pH 7.5, read-out: percent inhibition of Type I AR), 81%.

On to `CN1C(=O)CC[C@]2(C)c3ccc(-c4cc(C(F)(F)F)ccc4F)cc3CC[C@@H]12` [Example 211, (+)-(4aR)-(10bR)-4-methyl-8-(2-fluoro-5-trifluoromethylphenyl)-10b-methyl-1,2,3,4,4a,5,6,10b-octahydrobenzo[f]-quinolin-3-one quinolin-3-one], for which the figures for the inhibition at 0.3 µM in assay [1] (setting [3]) and in assay [2] (setting [4]) were 29% and 70%, respectively.

Regarding `CSc1cccc(-c2ccc3c(c2)CC[C@H]2N(C)C(=O)CC[C@]32C)c1` [Example 212, (+)-(4aR)-(10bR)-4-methyl-8-(3-methylthiophenyl)-10b-methyl-1,2,3,4,4a,5,6,10b-octahydrobenzo[f]quinolin-3-one], the inhibition at 0.3 µM in assay [1] (setting [3]) is 31%; in assay [2] (setting [4]) it was 73%.

For the compound `CN1C(=O)CC[C@]2(C)c3ccc(-c4ccc(C(N)=O)cc4)cc3CC[C@@H]12` [Example 213, (+)-(4aR)-(10bR)-4-methyl-8-(4-carboxamidophenyl)-10b-methyl-1,2,3,4,4a,5,6,10b-octahydrobenzo[f]quinolin-3-one], the inhibition at 0.3 µM came to 28% in assay [1] (setting [3]) and 64% in assay [2] (setting [4]).

`CCN(CC)C(=O)c1cc2cc(-c3ccc4c(c3)CC[C@H]3N(C)C(=O)CC[C@]43C)ccc2oc1=O` [Example 214, (+)-(4aR)-(10bR)-4-methyl-8-[2-oxo-3-(N,N-diethylcarboxamido)-1-2H-benzopyran-6-yl)-10b-methyl-1,2,3,4,4a,5,6,10b-octahydrobenzo[f]quinolin-3-one]: the results for the inhibition at 0.3 µM in assay [1] (setting [3]) and in assay [2] (setting [4]) were 29% and 26%, respectively.

Turning to `CN1C(=O)CC[C@]2(C)c3ccc(-c4ccc(NC(=O)C(C)(C)C)nc4)cc3CC[C@@H]12` [Example 215, (+)-(4aR)-(10bR)-4-methyl-8-[2-(t-butylcarbonylamino)-5-pyridinyl]-10b-methyl-1,2,3,4,4a,5,6,10b-octahydrobenzo[f]-quinolin-3-one], the values for the inhibition at 0.3 µM in assay [1] (setting [3]) and in assay [2] (setting [4]) were 42% and 84%, respectively.

As to `CN1C(=O)CC[C@]2(C)c3ccc(-c4cc(F)cc(C(F)(F)F)c4)cc3CC[C@@H]12` [Example 216, (+)-(4aR)-(10bR)-4-methyl-8-(3-fluoro-5-trifluoromethylphenyl)-10b-methyl-1,2,3,4,4a,5,6,10b-octahydrobenzo[f]-quinolin-3-one], the inhibition at 0.3 µM in assay [1] (setting [3]) was 24%; in assay [2] (setting [4]) it was 78%.
